In patent publication US20220332774A1, “THERAPEUTIC MITOCHONDRIAL PEPTIDES” (priority 2019, published 2022):

tested on: 3T3-L1 Mouse Adipocytes; test: Free fatty acid levels in cultured 3T3-L1 mouse adipocytes (isoproterenol stimulated); format: cell-based; conditions: free fatty acid in medium; 5 μM peptide, 20-22 h pre-incubation then 3 h with 0.1 nM isoproterenol; isoproterenol alone = 100%
In short: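 3T3-L1 cells differentiated 12 days, insulin withdrawn, then peptides added on day 13 at 5 μM (0.1% DMSO) for 20-22 h at 37° C. After 3 h in assay buffer, medium free fatty acids read at 540 nm. Values expressed as percent of 0.1 nM isoproterenol-alone control.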

Substance	Percent of Isoproterenol Control Activity [%]
73 (MLRSMLWNLWSKPQFHAHRP) [compound 73]	98
18 (MEAMGLAWNQLWGVRFLPFLS) [compound 18]	102
26 (MGACQGGSDESN) [compound 26]	93
189 (FEELINVWVWVYMSQWEFYDGPCN) [compound 189]	95
98 (MNPDQPHHLLLSLYTAIFSKPWW) [compound 98]	97
176 (MKNIEAPLAW) [compound 176]	95
40 (MGSPPPAGSKKVVL) [compound 40]	95
90 (MMSVWKVAVQTFNCYYYVLQALIN) [compound 90]	101
151 (MVNGRRTSVGV) [compound 151]	81
146 (MVLEFGLVGYFLLGGGSGWV) [compound 146]	97
13 (MCSCVYVYSYCKYMVCSHDKP) [compound 13]	92
20 (MFDQENVVTSTESSPS) [compound 20]	88
42 (MGSSRLAVLCPPLHGQVNFTG) [compound 42]	106
134 (MTNIFGVWAR) [compound 134]	111
102 (MPLRLEWVQWGVGGWPWVCC) [compound 102]	120
133 (MTLGHNMIYLHTS) [compound 133]	107
80 (MMDPEHMNSMALKKAWVQMC) [compound 80]	87
70 (MLNWSNNLTNGTSYP) [compound 70]	110
106 (MPTNLPTLNST) [compound 106]	98
1 (MAAAPSGCPDPTS) [compound 1]	85
135 (MTNPENQNERKSVRFIHCPHNP) [compound 135]	127
75 (MLTPGLVNFVPATAVTRLTQVN) [compound 75]	79
123 (MSRNHSFCLNYMPIRFSLILFVVTH) [compound 123]	104
171 (MYRHLQQTLMKATK) [compound 171]	104
194 (LSPKPQQLNQQNCSPEHYEPQLKT) [compound 194]	103
100 (MPIIRRMSWSP) [compound 100]	105
192 (LGWVVGSFFMGGVWVGRSGIGGML) [compound 192]	104

tested on: H4-IIE Cells; test: Glucose production in cultured H4-IIE cells; format: cell-based, rat; conditions: glucose concentration in medium relative to untreated cells; 5 μM peptide, 24 h
In short: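 Rat H4-IIE hepatoma cells primed overnight in glucose-free DMEM with 2 mM pyruvate and 10 mM lactate, then treated 24 h at 37 °C with 5 μM peptide (0.1% DMSO; concentration assumes ~2000 Da). Medium glucose measured colorimetrically at 570 nm. Values are percent of untreated-cell glucose production; 0.5-1 nM insulin served as inhibitor reference.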

Substance	Percent of Control Activity [%]
73 (MLRSMLWNLWSKPQFHAHRP) [compound 73]	111
18 (MEAMGLAWNQLWGVRFLPFLS) [compound 18]	99
26 (MGACQGGSDESN) [compound 26]	97
189 (FEELINVWVWVYMSQWEFYDGPCN) [compound 189]	116
98 (MNPDQPHHLLLSLYTAIFSKPWW) [compound 98]	117
176 (MKNIEAPLAW) [compound 176]	108
40 (MGSPPPAGSKKVVL) [compound 40]	109
90 (MMSVWKVAVQTFNCYYYVLQALIN) [compound 90]	104
151 (MVNGRRTSVGV) [compound 151]	90
146 (MVLEFGLVGYFLLGGGSGWV) [compound 146]	99
13 (MCSCVYVYSYCKYMVCSHDKP) [compound 13]	87
20 (MFDQENVVTSTESSPS) [compound 20]	97
42 (MGSSRLAVLCPPLHGQVNFTG) [compound 42]	112
134 (MTNIFGVWAR) [compound 134]	92
102 (MPLRLEWVQWGVGGWPWVCC) [compound 102]	108
133 (MTLGHNMIYLHTS) [compound 133]	91
80 (MMDPEHMNSMALKKAWVQMC) [compound 80]	111
70 (MLNWSNNLTNGTSYP) [compound 70]	105
106 (MPTNLPTLNST) [compound 106]	107
1 (MAAAPSGCPDPTS) [compound 1]	128
135 (MTNPENQNERKSVRFIHCPHNP) [compound 135]	93
75 (MLTPGLVNFVPATAVTRLTQVN) [compound 75]	112
123 (MSRNHSFCLNYMPIRFSLILFVVTH) [compound 123]	106
171 (MYRHLQQTLMKATK) [compound 171]	100
194 (LSPKPQQLNQQNCSPEHYEPQLKT) [compound 194]	109
100 (MPIIRRMSWSP) [compound 100]	123
192 (LGWVVGSFFMGGVWVGRSGIGGML) [compound 192]	110

tested on: C2C12 Cells; test: Glucose utilization in cultured C2C12 cells (myotubes); format: cell-based, mouse; conditions: glucose concentration in medium relative to untreated cells; 5 μM peptide, 22 h
In short: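 Differentiated mouse myotubes (5 days in 2% horse serum) serum-starved 5 h, then treated 22 h at 37 °C with peptide at 5 μM final (0.1% DMSO) in low-glucose (1 g/L) DMEM. Glucose remaining in medium measured colorimetrically at 570 nm. Expressed as percent of untreated control, from 2–3 experiments in triplicate.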

Substance	Percent of Control Activity [%]
73 (MLRSMLWNLWSKPQFHAHRP) [compound 73]	111
18 (MEAMGLAWNQLWGVRFLPFLS) [compound 18]	97
26 (MGACQGGSDESN) [compound 26]	99
189 (FEELINVWVWVYMSQWEFYDGPCN) [compound 189]	98
98 (MNPDQPHHLLLSLYTAIFSKPWW) [compound 98]	91
176 (MKNIEAPLAW) [compound 176]	103
40 (MGSPPPAGSKKVVL) [compound 40]	109
90 (MMSVWKVAVQTFNCYYYVLQALIN) [compound 90]	97
151 (MVNGRRTSVGV) [compound 151]	95
146 (MVLEFGLVGYFLLGGGSGWV) [compound 146]	106
13 (MCSCVYVYSYCKYMVCSHDKP) [compound 13]	101
20 (MFDQENVVTSTESSPS) [compound 20]	102
42 (MGSSRLAVLCPPLHGQVNFTG) [compound 42]	107
134 (MTNIFGVWAR) [compound 134]	101
102 (MPLRLEWVQWGVGGWPWVCC) [compound 102]	102
133 (MTLGHNMIYLHTS) [compound 133]	100
80 (MMDPEHMNSMALKKAWVQMC) [compound 80]	99
70 (MLNWSNNLTNGTSYP) [compound 70]	118
106 (MPTNLPTLNST) [compound 106]	101
1 (MAAAPSGCPDPTS) [compound 1]	99
135 (MTNPENQNERKSVRFIHCPHNP) [compound 135]	109
75 (MLTPGLVNFVPATAVTRLTQVN) [compound 75]	100
123 (MSRNHSFCLNYMPIRFSLILFVVTH) [compound 123]	88
171 (MYRHLQQTLMKATK) [compound 171]	110
194 (LSPKPQQLNQQNCSPEHYEPQLKT) [compound 194]	92
100 (MPIIRRMSWSP) [compound 100]	102
192 (LGWVVGSFFMGGVWVGRSGIGGML) [compound 192]	98
